Where no end group is shown, it is not given here.
Key:
Fyn(WT)-SH3 = Fyn(WT)-SH3 (Homo sapiens, UniProt P06241); experiment: Yeast two-hybrid assay; type: cell-based; conditions: negative control for RT-loop selection
Fyn(R96I)-SH3 = experiment: Yeast two-hybrid assay; type: cell-based, human; conditions: negative control for RT-loop selection
Hck-SH3 [1] = experiment: Yeast two-hybrid assay; type: cell-based, human; conditions: negative control for RT-loop selection
Hck-SH3 [2] = conditions: ITC, ref [12]; cited from earlier work

Fyn(WT)-SH3, sequence (P06241 82-143 limits assumed): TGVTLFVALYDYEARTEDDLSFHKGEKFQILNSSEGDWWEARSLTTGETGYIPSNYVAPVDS

| Substance | yeast two-hybrid interaction strength (Fyn(WT)-SH3) | yeast two-hybrid interaction strength (Fyn(R96I)-SH3) | yeast two-hybrid interaction strength (Hck-SH3 [1]) | binding characteristics toward Hck-SH3 compared with ALIXV+PRR (Hck-SH3 [2]) |
| --- | --- | --- | --- | --- |
| SAM68: Src-associated in mitosis 68 kDa (SAM68) protein | interacted with comparable strength with every SH3 domain | interacted with comparable strength with every SH3 domain | interacted with comparable strength with every SH3 domain |  |
| PTPPTPAPRTMPPTKPQPPARPPP [ALIXPI] |  |  |  | did not fully reproduce the binding characteristics of ALIXV+PRR toward Hck-SH3 |
